This note sets out measurements from patent US9895331B2, “Prophylactic and/or therapeutic agent for radiation damage” (The University of Tokyo, priority 2012, dated 2018).

What all share (type): in vivo, C57BL/6 mice
The test system of assay [1] is mouse suffering from radiation damage. Kind of assay: Radiation damage-alleviating effect of 5-ALA in irradiated mice (survival rate, body weight, appearance). Particulars: for body weight vs non-ALA administration group / body weight, p vs non-ALA administration group: eleven days after irradiation; for body weight vs non-ALA administration group / body weight, p vs non-ALA administration group / changes in appearance: total 8 Gy. From the text: Male 8-week-old C57BL/6 mice were purchased from Japan SLC, Inc. and mice that appeared healthy by visual inspection on the day of arrival were subjected to the test. On the day after arrival, based on the body weight, the mice were divided into three groups of 10 mice per group by random sampling, and further, one group was divided into three, three, and four mice per cage. The mice were allowed to feed on the basic feed MF manufactured by Oriental Yeast Co., Ltd. and tap water ad libitum and reared in a rearing room at a room temperature of 23 to 24° C., a humidity of 30 to 40%, and under 12 hours of fluorescent lamp lighting.
The mice were divided into three groups of [1] to [3], each receiving a different drug, as shown below. Group; Non-5-ALA administration group (10 mice) Group; 5-ALA hydrochloride 10 mg/kg body weight administration group (10 mice) Group; 5-ALA hydrochloride 100 mg/kg body weight administration group (10 mice)
Using Pantac HF350 (200 KV, 20 mA Filter: Cu 0.1 mm+Al 0.5 mm), the mice were irradiated with 4 Gy of radiation twice at a 3-hour interval (a total of 8 Gy).
After initiation of irradiation, water was forcedly administered to the aforementioned group, and an aqueous solution of 5-ALA hydrochloride was forcedly administered to the aforementioned groups and [3] every day in the stomach through a feeding tube.
Setting the day of irradiation at day 0, survival up to day 21 was checked. A mouse that survived for 21 days was judged as alive. […] Also, when the death was confirmed in the morning hours, the death was judged to have occurred on the previous day.
At the time of confirmation of survival in (5) above, body weight was simultaneously measured.
During the measurement in (5) above, it was examined whether there was any change in appearance between the administration group and non-administration group.

Assay [2] shares this test system. In words: Test for studying the establishment of an assessment model (body weight, blood cell count by flow cytometer; 3.5, 4.0, 4.5 Gy). The text has this:
Male 8-week-old C57BL/6 mice were purchased from Japan SLC, Inc. and mice that appeared healthy by visual inspection on the day of arrival were subjected to the test. On the day after arrival, based on the body weight, the mice were divided into 10 groups of four mice per group by random sampling, and each group was kept in one cage. The mice were allowed to feed on the basic feed MF manufactured by Oriental Yeast Co., Ltd. and tap water ad libitum and reared in a rearing room at a room temperature of 23 to 24° C., a humidity of 30 to 40%, and under 12 hours of fluorescent lamp lighting.
The mice were divided into 10 groups, including nine groups of 1) to 9), each receiving a different drug and exposed to a different radiation dose, and an untreated group, as shown below.
Groups 1) to 3); Three non-5-ALA administration groups, each irradiated with 3.5 Gy, 4.0 Gy, or 4.5 Gy
Groups 4) to 6); Three 5-ALA hydrochloride 100 mg/kg body weight administration groups, each irradiated with 3.5 Gy, 4.0 Gy, or 4.5 Gy
Groups 7) to 9); Three 5-ALA hydrochloride 100 mg+SFC 157 mg/kg body weight administration groups, each irradiated with 3.5 Gy, 4.0 Gy, or 4.5 Gy […]
Setting the day of irradiation at day 0, the body weight was measured two days before initiation of irradiation (day −2), and on day 0, day 3, day 5, and day 7.
The group of cells obtained from the bone marrow, spleen, and thymus were analyzed by a flow cytometer. […]
The results of analyzing the group of cells obtained from the bone marrow, spleen, and thymus by a flow cytometer are shown in FIG. 4. The number of bone marrow cells was counted as a sum of B cells, T cells, polymorphonuclear leukocytes (neutrophils), monocytes, and Ery I to IV. The number of thymocytes was counted as a sum of the number of CD4SP, CD8SP, DN, and DP. The number of spleen cells was counted as a sum of B cells, T cells, polymorphonuclear leukocytes (neutrophils), monocytes, and Ery I to IV.
(Flow cytometry measures light scatter and fluorescence of single cells or particles in a stream.)

Assay [3] has the same test system. Kind of assay: Assessment test for hematopoiesis-promoting effect (body weight, blood cell count by flow cytometer; 4.0 Gy). Particulars: 5-ALA hydrochloride 100 mg/kg. From the text:
Male 8-week-old C57BL/6 mice were purchased from Japan SLC, Inc. and mice that appeared healthy by visual inspection on the day of arrival were subjected to the test. On the day after arrival, based on the body weight, the mice were divided into three groups of eight mice per group by random sampling, and further, one group was divided into four mice per cage. Also, as an untreated group, one group of four mice was kept in one cage. The mice were allowed to feed on the basic feed MF manufactured by Oriental Yeast Co., Ltd. and tap water ad libitum and reared in a rearing room at a room temperature of 23 to 24° C., a humidity of 30 to 40%, and under 12 hours of fluorescent lamp lighting.
The mice were divided into four groups, including three groups a) to c), each receiving a different drug, and an untreated group, as shown below.
Group a); Non-5-ALA administration group
Group b); 5-ALA hydrochloride 100 mg/kg body weight administration group
Group c); 5-ALA hydrochloride 100 mg+SFC 157 mg/kg body weight administration group
Using Pantac HF350 (200 KV, 20 mA Filter: Cu 0.1 mm+Al 0.5 mm), the mice were collectively irradiated with a radiation dose of 4.0 Gy on day 0.
From two days before initiation of irradiation (day −2) to day 6, water was forcedly administered to the aforementioned group a), an aqueous solution of 5-ALA hydrochloride was forcedly administered to the aforementioned group b), and an aqueous solution of 5-ALA hydrochloride and SFC was forcedly administered to the aforementioned group c) every day in the stomach through a feeding tube.
Setting the day of irradiation at day 0, the body weight was measured two days before initiation of irradiation (day −2), and on day 0, day 3, and day 6.
The group of cells obtained from the bone marrow, spleen, and thymus were analyzed by a flow cytometer. As an index for identifying each cell, the markers shown in the above [Table 2] were each used.
The results of analyzing the group of cells obtained from the bone marrow, spleen, and thymus by a flow cytometer are shown in FIG. 6. The number of bone marrow cells was counted as a sum of B cells, T cells, polymorphonuclear leukocytes (neutrophils), monocytes, and Ery I to IV. The number of thymocytes was counted as a sum of the number of CD4SP, CD8SP, DN, and DP. The number of spleen cells was counted as a sum of B cells, T cells, polymorphonuclear leukocytes (neutrophils), monocytes, and Ery I to IV.

Each structure is given as a SMILES string.

As for `NCC(=O)CCC(=O)O` [ALA, 5-aminolevulinic acid], the “survival rate, p (Logrank method) vs non-ALA administration group” value in assay [1] (10 mg/kg, 4 Gy twice (total 8 Gy), up to day 21) turned out to be 0.161. Besides, in assay [1] (10 mg/kg), the “body weight vs non-ALA administration group” value is on record as “significant difference” and the “body weight, p vs non-ALA administration group” value worked out at 0.03556. In addition, the changes in appearance result in assay [1] (10 mg/kg, vs non-ALA group) was “milder piloerection”. Also, in assay [1] (100 mg/kg daily intragastric after irradiation, 4 Gy twice (total 8 Gy), up to day 21, vs non-ALA group), the survival rate entry was “significantly improved”. The “survival rate, p (Logrank method) vs non-ALA administration group” value in assay [1] (100 mg/kg, 4 Gy twice (total 8 Gy), up to day 21) amounted to 0.0289. Moreover, in assay [1] (100 mg/kg), the “body weight vs non-ALA administration group” value was “significant difference” and the “body weight, p vs non-ALA administration group” value is given as 0.03456. In addition, the changes in appearance result in assay [1] (100 mg/kg, vs non-ALA group) is recorded as “milder piloerection”. Also, the “other items of blood cell count (bone marrow, thymus, spleen; other doses and groups)” value in assay [2] (3.5 to 4.5 Gy, vs H2O control group) is “no significant difference”. Moreover, the “cell count in each organ (bone marrow, spleen, thymus)” value in assay [2] (4.0 Gy, 5-ALA hydrochloride 100 mg/kg) is given as “stable improvement tendency”. For the same compound, in assay [2] (4.0 Gy, 5-ALA hydrochloride 100 mg/kg, day -2 to day 6, vs H2O control group), the spleen cell count entry was “significant improvement”. Moreover, in assay [3] (bone marrow), the “number of B cells among the bone marrow cells” value is listed as “tendency of improvement”, the “number of bone marrow TER119+ erythroid progenitor cells” value was “tendency of improvement” and the “number of monocytes among the bone marrow cells” value is listed as “tendency of improvement”. In assay [3] (spleen), the “number of B cells among the spleen cells” value is given as “statistically significant improvement”, the “number of CD11b+ cells among the spleen cells” value was “tendency of improvement”, the “number of polymorphonuclear leukocytes among the spleen cells” value is listed as “tendency of improvement” and the “number of the erythroid progenitor cell Ery IV among the spleen cells” value is “improved with statistical significance”. For the same compound, the spleen cell count entry in assay [3] (without or with SFC 157 mg/kg, day -2 to day 6, vs H2O control group) is given as “significant improvement”. Further, the “number of T cells among the spleen cells” value in assay [3] (without or with SFC 157 mg/kg, spleen) is listed as “tendency of improvement”.
